Assay results published in paper PMC4754685 (Scientific Reports, 2016).

Each molecule was assayed against T1, Mlp37p (periplasmic fragment of Mlp37) (Vibrio cholerae, UniProt A0A0H3AES3) (assay: biochemical).
T1 construct: gene VC0395_0316
T1 sequence (A0A0H3AES3 58-303 limits assumed): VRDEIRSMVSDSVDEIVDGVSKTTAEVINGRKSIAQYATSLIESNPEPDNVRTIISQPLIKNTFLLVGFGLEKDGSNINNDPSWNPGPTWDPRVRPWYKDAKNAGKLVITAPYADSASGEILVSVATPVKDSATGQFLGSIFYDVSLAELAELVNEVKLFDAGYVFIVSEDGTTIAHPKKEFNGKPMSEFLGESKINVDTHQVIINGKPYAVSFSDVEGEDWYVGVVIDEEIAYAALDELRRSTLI

Point of comparison: N=C(N)NCCC[C@H](N)C(=O)O [L-arginine], Kd 5.6 µM. Against it:
- N[C@@H](CO)C(=O)O [L-serine] — 1.6-fold lower, 3.6 µM
- NCCS(=O)(=O)O [taurine, 2-aminoethanesulfonic acid] — 1.7-fold lower, 3.2 µM
- C[C@H](N)C(=O)O [L-alanine] — 2.1-fold lower, 2.7 µM
